This passage reports IC50 results from ChEMBL document CHEMBL1914368, “Imidazo[1,5-a]quinoxalines as irreversible BTK inhibitors for the treatment of rheumatoid arthritis” (Bioorg Med Chem Lett, 2011).

For assay [1], the target named is Tyrosine-protein kinase BTK (Homo sapiens, UniProt Q06187). The experiment in a line: Inhibition of human full-length BTK expressed in Sf9 cells using FAM-Srctide peptide as substrate after 60 mins by TR-FRET Assay.
The target of assay [2] is Tyrosine-protein kinase Lyn (Homo sapiens, UniProt P07948). The experiment in a line: Inhibition of LYN-A expressed in Sf9 cells after 60 mins by TR-FRET Assay. In general terms: Time-resolved FRET reads energy transfer from a long-lived donor to a nearby acceptor.
A short description of assay [3]: Inhibition of anti-IgM-stimulated human B cell proliferation assessed as [3H]thymidine incorporation preincubated for 30 mins measured after 3 days. It is filed as functional, cell-based. Background: Dividing cells build labelled thymidine or BrdU into new DNA.
Where [4] appears, read: Homo sapiens, B-cell, read-out: IC50.

Sequence of Tyrosine-protein kinase Lyn (P07948 whole entry): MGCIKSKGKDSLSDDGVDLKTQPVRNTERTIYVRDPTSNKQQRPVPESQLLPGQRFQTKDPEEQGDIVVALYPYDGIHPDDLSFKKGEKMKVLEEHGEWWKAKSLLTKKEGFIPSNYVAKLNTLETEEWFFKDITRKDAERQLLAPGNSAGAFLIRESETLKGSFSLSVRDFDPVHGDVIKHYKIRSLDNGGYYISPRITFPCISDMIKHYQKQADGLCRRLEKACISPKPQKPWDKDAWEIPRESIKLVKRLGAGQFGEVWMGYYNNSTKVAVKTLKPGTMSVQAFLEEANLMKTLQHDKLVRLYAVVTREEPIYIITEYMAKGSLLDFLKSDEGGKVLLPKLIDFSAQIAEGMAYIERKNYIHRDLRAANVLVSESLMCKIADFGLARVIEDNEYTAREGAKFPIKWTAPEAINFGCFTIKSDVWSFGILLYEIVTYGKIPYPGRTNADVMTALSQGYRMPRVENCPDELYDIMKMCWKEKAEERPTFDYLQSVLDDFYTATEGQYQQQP
Sequence of Tyrosine-protein kinase BTK (Q06187 whole entry): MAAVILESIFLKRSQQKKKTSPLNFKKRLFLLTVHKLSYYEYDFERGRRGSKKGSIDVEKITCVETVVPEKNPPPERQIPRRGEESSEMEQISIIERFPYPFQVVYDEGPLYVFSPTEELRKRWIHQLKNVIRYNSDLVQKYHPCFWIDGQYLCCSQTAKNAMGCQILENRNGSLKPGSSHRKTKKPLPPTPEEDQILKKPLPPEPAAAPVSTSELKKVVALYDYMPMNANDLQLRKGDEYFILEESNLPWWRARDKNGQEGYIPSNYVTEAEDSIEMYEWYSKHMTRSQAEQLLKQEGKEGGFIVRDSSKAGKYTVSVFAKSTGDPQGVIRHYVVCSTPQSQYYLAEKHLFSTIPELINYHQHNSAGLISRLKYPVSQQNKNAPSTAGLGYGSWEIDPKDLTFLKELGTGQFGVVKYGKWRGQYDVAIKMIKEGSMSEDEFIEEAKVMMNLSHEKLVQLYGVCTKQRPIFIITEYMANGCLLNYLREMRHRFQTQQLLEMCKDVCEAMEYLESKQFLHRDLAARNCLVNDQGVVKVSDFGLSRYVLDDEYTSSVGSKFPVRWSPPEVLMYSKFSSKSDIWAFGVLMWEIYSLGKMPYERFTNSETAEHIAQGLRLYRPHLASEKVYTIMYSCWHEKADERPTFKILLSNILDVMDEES

As a reminder, the IC50 is the concentration at which inhibition is half-maximal. For `COc1cc2nc(Nc3ccccc3C)c3cncn3c2cc1NC(=O)C#CCN1CCCCC1`, the results for the IC50 in assay [1] and in assay [2] were 0.847 nM and 21.3 nM, respectively.
On to `CNc1cc2c(cc1F)nc(Oc1ccccc1C)c1cncn12`, for which the results for the half-inhibitory concentration (IC50) in assay [1] and in assay [2] were 670 nM and 130 nM, respectively.
`Cc1c(Cl)cccc1Nc1nc2ccc(N(C)C(=O)/C=C/CN(C)C)cc2n2cncc12`: the figures for the IC50 in assay [1], in assay [2] and in assay [3] (b cell) were 60.6 nM, 2320 nM and “Not Active”, respectively.
With `CNc1ccc2nc(Oc3ccc(F)cc3C)c3cncn3c2c1`, the figures for the IC50 in assay [1] and in assay [2] were 1220 nM and 560 nM, respectively.
For `Cc1cc(F)ccc1Nc1nc2cc(Cl)c(N(C)C(=O)/C=C/CN(C)C)cc2n2cncc12`, the half-inhibitory concentration (IC50) in assay [1] is 9.53 nM; in assay [2] it was 1590 nM; in assay [3] (setting [4]) it was 2.41 nM.
Regarding `Cc1ccc(NC(=O)c2cccc(C(F)(F)F)c2)cc1Nc1nc2ccc(N(C)C(=O)/C=C/CN(C)C)cc2n2cncc12`, the IC50 in assay [1] is 16.8 nM; in assay [2], 1.55 nM; in assay [3] (b cell), “Not Active”.
Regarding `Cc1cc(F)ccc1Oc1nc2cc(F)c(N(C)C(=O)/C=C/CN(C)C)cc2n2cncc12`, the IC50 in assay [1] worked out at 9.53 nM; in assay [2], 10400 nM; in assay [3] (setting [4]), 32.3 nM.
`Cc1ccccc1Nc1nc2cc(Cl)c(N(C)C(=O)/C=C/CN(C)C)cc2n2cncc12`: the IC50 came to 4.83 nM in assay [1], 1300 nM in assay [2] and 2.17 nM in assay [3] (setting [4]).
With `Cc1ccc(Cl)cc1Nc1nc2ccc(N(C)C(=O)/C=C/CN(C)C)cc2n2cncc12`, the IC50 in assay [1] is 13.2 nM; in assay [2] it was 1670 nM; in assay [3] (setting [4]) it was 53.7 nM.
For the molecule `COc1cc2nc(Nc3ccccc3C)c3cncn3c2cc1NC(=O)/C=C/CN(C)C`, the IC50 in assay [1] is 0.884 nM; in assay [2], 10.9 nM; in assay [3] (b cell), “Not Active”.
Consider `Cc1ccccc1Nc1nc2ccc(N(C)C(=O)/C=C/CN(C)C)cc2n2cncc12`, for which the IC50 stood at 3.99 nM in assay [1], 623 nM in assay [2] and 3.17 nM in assay [3] (setting [4]).
As to `CN(C)C/C=C/C(=O)N(C)c1ccc2nc(Cl)c3cncn3c2c1`, the figures for the IC50 in assay [1], in assay [2] and in assay [3] (b cell) were 4290 nM, above 50000 nM and “Not Active”, respectively.
Consider `CN(C)C/C=C/C(=O)N(C)c1cc2c(cc1Cl)nc(Nc1ccccc1Cl)c1cncn12`, for which the results for the IC50 in assay [1], in assay [2] and in assay [3] (setting [4]) were 5.03 nM, 2000 nM and 4.4 nM, respectively.
Regarding `C=C(CN1CCOCC1)C(=O)Nc1cc2c(cc1OC)nc(Nc1ccccc1C)c1cncn12`, the IC50 in assay [1] was 2.52 nM; in assay [2], 297 nM.
As for `Cc1cc(O)ccc1Nc1nc2ccc(N(C)C(=O)/C=C/CN(C)C)cc2n2cncc12`, the results for the half-maximal inhibitory concentration (IC50) in assay [1], in assay [2] and in assay [3] (setting [4]) were 12.2 nM, 350 nM and 1.02 nM, respectively.
Consider `COc1cc2nc(Nc3ccccc3C)c3cncn3c2cc1NC(=O)C#CCN1CCOCC1`, for which the IC50 turned out to be 0.847 nM in assay [1] and 46.6 nM in assay [2].
As to `Cc1ccccc1Sc1nc2ccc(N(C)C(=O)/C=C/CN(C)C)cc2n2cncc12`, the results for the IC50 in assay [1], in assay [2] and in assay [3] (setting [4]) were 283 nM, 19600 nM and 651 nM, respectively.
For `Cc1ccc(O)cc1Nc1nc2ccc(N(C)C(=O)/C=C/CN(C)C)cc2n2cncc12`, the IC50 in assay [1] came to 1.55 nM; in assay [2] it was 10.9 nM; in assay [3] (setting [4]), 2.56 nM.
For `Cc1cccc(O)c1Nc1nc2ccc(N(C)C(=O)/C=C/CN(C)C)cc2n2cncc12`, the IC50 in assay [1] worked out at 10.4 nM; in assay [2], 167 nM; in assay [3] (setting [4]), 44.9 nM.
As to `CN(C)C/C=C/C(=O)N(C)c1cc2c(cc1F)nc(Nc1ccccc1Cl)c1cncn12`, the figures for the concentration for half-maximal inhibition (IC50) in assay [1], in assay [2] and in assay [3] (setting [4]) were 1.82 nM, 2130 nM and 6.75 nM, respectively.
For `Cc1cccc(Cl)c1Nc1nc2ccc(N(C)C(=O)/C=C/CN(C)C)cc2n2cncc12`, the IC50 in assay [1] is 10.3 nM; in assay [2], 44.4 nM; in assay [3] (b cell) it was “Not Active”.
As to `CNc1ccc2nc(Nc3cc(F)ccc3C)c3cncn3c2c1`, the IC50 was determined as 72 nM in assay [1] and 40 nM in assay [2].
As for `Cc1ccc(F)cc1Nc1nc2cc(F)c(N(C)C(=O)/C=C/CN(C)C)cc2n2cncc12`, the values for the IC50 in assay [1], in assay [2] and in assay [3] (setting [4]) were 6.76 nM, 3080 nM and 23.5 nM, respectively.
For `Cc1cc(F)ccc1Nc1nc2cc(F)c(N(C)C(=O)/C=C/CN(C)C)cc2n2cncc12` the same measures were 5.35 nM, 3450 nM and 8.08 nM.
Regarding `Cc1cc(F)ccc1Nc1nc2ccc(N(C)C(=O)/C=C/CN(C)C)cc2n2cncc12`, the figures for the IC50 in assay [1], in assay [2] and in assay [3] (setting [4]) were 2.96 nM, 716 nM and 2 nM, respectively.
Take `CNc1cc2c(cc1F)nc(Nc1ccccc1C)c1cncn12`: the IC50 in assay [1] stood at 40 nM; in assay [2], 19 nM.
Consider `Cc1cc(Cl)ccc1Nc1nc2ccc(N(C)C(=O)/C=C/CN(C)C)cc2n2cncc12`, for which the IC50 in assay [1] is 7.56 nM; in assay [2] it was 378 nM; in assay [3] (setting [4]), 4.12 nM.
Turning to `COc1cc2nc(Nc3ccccc3C)c3cncn3c2cc1N(CC1CC1)C(=O)/C=C/CN(C)C`, the IC50 in assay [1] was 45.3 nM; in assay [2] it was 1980 nM; in assay [3] (setting [4]) it was 43.1 nM.
On to `Cc1ccccc1Oc1nc2cc(F)c(N(C)C(=O)/C=C/CN(C)C)cc2n2cncc12`, for which the IC50 was 5.51 nM in assay [1], 6020 nM in assay [2] and 17.4 nM in assay [3] (setting [4]).
As for `CCN(C(=O)/C=C/CN(C)C)c1cc2c(cc1OC)nc(Nc1ccccc1C)c1cncn12`, the IC50 was determined as 19.1 nM in assay [1], 533 nM in assay [2] and 16.1 nM in assay [3] (setting [4]).
On to `Cc1c(F)cccc1Nc1nc2ccc(N(C)C(=O)/C=C/CN(C)C)cc2n2cncc12`, for which the results for the IC50 in assay [1], in assay [2] and in assay [3] (setting [4]) were 1.89 nM, 327 nM and 3.17 nM, respectively.
Turning to `Cc1c(O)cccc1Nc1nc2ccc(N(C)C(=O)/C=C/CN(C)C)cc2n2cncc12`, the IC50 is 76.5 nM in assay [1], 490 nM in assay [2] and “Not Active” in assay [3] (b cell).
Consider `Cc1ccc(F)cc1Oc1nc2cc(F)c(N(C)C(=O)/C=C/CN(C)C)cc2n2cncc12`, for which the IC50 in assay [1] worked out at 13 nM; in assay [2] it was 7400 nM; in assay [3] (setting [4]) it was 144 nM.
